Paper PMC6311682, “Design, Synthesis, and Biological Evaluation of 2-Nitroimidazopyrazin-one/-es with Antitubercular and Antiparasitic Activity” (Journal of Medicinal Chemistry, 2018)
In brackets after ≈: the same amount, converted by molar mass. Where two headings read alike, the source gives them in different places. Marks after values point to notes of the source that are not given here.

Assays:
HepG2 cells = system: HepG2 cells; set-up: method as in Jarrad et al. 2; conditions: ATCC HB-8065; ref Jarrad et al. 2; read-out: cytotoxicity CC50 HepG2; cited from earlier work
HEK293 cells = system: HEK293 cells; set-up: method as in Jarrad et al. 2; conditions: ATCC CRL-1573; ref Jarrad et al. 2; read-out: cytotoxicity CC50 HEK 293; cited from earlier work
[1] = system: C. albicans (ATCC 90028) and C. neoformans (H99, ATCC 208821); assay: Broth microdilution MIC assay, fungi; type: cell-based; conditions: for MIC: Candida albicans, read-out: antifungal MIC
[2] = Mammalian cytotoxicity assay (resazurin), HEK293; conditions: human, HEK293 cells
[3] = Kinetic solubility determination by LC-UV; conditions: room temperature, 1% DMSO
[4] = system: L. donovani MHOM/IN/80/DD8 (ATCC50212); assay: L. donovani DD8 intracellular (THP-1) amastigote assay; type: cell-based; conditions: Leishmania donovani
[5] = Mammalian cytotoxicity assay (resazurin), HepG2; conditions: human, HepG2 cells
[6] = system: C. difficile (630, ATCC BAA-1382); assay: Broth microdilution MIC assay, C. difficile; type: cell-based, Clostridium difficile; conditions: 630 ATCC BAA-1382, median MIC; for MIC: Clostridioides difficile, ATCCBAA1382, read-out: antibacterial MIC C. difficile
[7] = system: ESKAPE pathogens S. aureus (ATCC 43300), E. coli (ATCC 25922), K. pneumoniae (ATCC 700603), A. baumannii (ATCC 19606), P. aeruginosa (ATCC 27853); assay: Broth microdilution MIC assay, ESKAPE pathogens; type: cell-based
[8] = Broth microdilution MIC assay, ESKAPE pathogens; type: cell-based; conditions: S. aureus, E. coli, K. pneumoniae, A. baumannii, P. aeruginosa; read-out: antibacterial MIC ESKAPE
[9] = PBS, pH 7.4, Solubility µM (PBS), PBS pH 7.4, 24 h
[10] = water, Solubility µM (H2O), 24 h
[11] = read-out: antiparasitic IC50 L. donovani
[12] = read-out: antiparasitic pIC50 ± SE L. donovani (converted)

| SMILES | CC50 (HepG2 cells) | CC50 (HEK293 cells) | antifungal MIC [1] | MIC [1] | CC50 at 24 h [2] | solubility at 24 h [3, 9] | solubility at 24 h [3, 10] | IC50 [4, 11] | IC50 [4, 12] | CC50 at 24 h [5] | antibacterial MIC C. difficile [6] | MIC [6] | antibacterial MIC ESKAPE [7] | MIC [8] |
| --- | --- | --- | --- | --- | --- | --- | --- | --- | --- | --- | --- | --- | --- | --- |
| CNC(=O)c1nc([N+](=O)[O-])cn1Cc1ccc(OC(F)(F)F)cc1 [28g] | > 100 µM | > 100 µM | – | – | – | – | – | – | – | – | – | – | – | – |
| NC(=O)c1nc([N+](=O)[O-])cn1Cc1ccc(OC(F)(F)F)cc1 [28c] | > 100 µM | > 100 µM | – | – | – | – | – | – | – | – | – | – | – | – |
| Cc1cn2cc([N+](=O)[O-])nc2c(=O)n1CCO [25d, 7-(2-Hydroxyethyl)-6-methyl-2-nitroimidazo[1,2-a]pyrazin-8(7H)-one] | – | – | >32 µg/mL | > 32 µg/mL | > 100 µM | > 200 µM | > 200 µM | > 80 µM | > 79.4 µM | > 100 µM | >64 µg/mL | > 64 µg/mL | >32 µg/mL | > 32 µg/mL |
| Cc1[nH]c(=O)c2nc([N+](=O)[O-])cn2c1C [26a, 5,6-Dimethyl-2-nitroimidazo[1,2-a]pyrazin-8(7H)-one] | – | – | >32 µg/mL | > 32 µg/mL | > 100 µM | > 200 µM | > 200 µM | > 80 µM | > 79.4 µM | > 100 µM | >64 µg/mL | > 64 µg/mL | >32 µg/mL | > 32 µg/mL |
| NC(=O)c1nc([N+](=O)[O-])cn1Cc1ccc(F)cc1 [28e] | > 100 µM | > 100 µM | – | – | – | – | – | – | – | – | – | – | – | – |
| O=C(NCc1cccc(OC(F)(F)F)c1)c1ncc([N+](=O)[O-])[nH]1 [16f] | > 100 µM | > 100 µM | – | – | – | – | – | – | – | – | – | – | – | – |
| Cc1nc(OCc2cccc(OC(F)(F)F)c2)c2nc([N+](=O)[O-])cn2c1C [26g, 5,6-Dimethyl-2-nitro-8-((3-(trifluoromethoxy)benzyl)oxy)imidazo[1,2-a]pyrazine] | – | – | >32 µg/mL | > 32 µg/mL | > 100 µM | < 5 µM | < 5 µM | > 20 µM | > 20 µM | > 100 µM | – | – | >32 µg/mL | > 32 µg/mL |
| NC(=O)c1nc([N+](=O)[O-])cn1Cc1cccc(OC(F)(F)F)c1 [28f] | > 100 µM | > 100 µM | – | – | – | – | – | – | – | – | – | – | – | – |
| O=[N+]([O-])c1cn2cc(-c3ccccc3)nc(OCCO)c2n1 [24e, 2-((2-Nitro-6-phenylimidazo[1,2-a]pyrazin-8-yl)oxy)ethan-1-ol] | – | – | >32 µg/mL | > 32 µg/mL | > 100 µM | < 5 µM | < 5 µM | > 80 µM | > 79.4 µM | > 100 µM | >64 µg/mL | > 64 µg/mL | 16-32* μg/mL | 16 to 32 µg/mL (≈ 53.3 to 107 µM) |
| Cc1cn2cc([N+](=O)[O-])nc2c(OCCO)n1 [25e, 2-((6-Methyl-2-nitroimidazo[1,2-a]pyrazin-8-yl)oxy)ethan-1-ol] | – | – | >32 µg/mL | > 32 µg/mL | > 100 µM | 193 ± 3.28 µM (≈ 46 µg/mL) | 196 ± 1.45 µM (≈ 46.7 µg/mL) | > 80 µM | > 79.4 µM | > 100 µM | >64 µg/mL | > 64 µg/mL | >32 µg/mL | > 32 µg/mL |
| Cc1nc(OCc2ccc(OC(F)(F)F)cc2)c2nc([N+](=O)[O-])cn2c1C [26c, 5,6-Dimethyl-2-nitro-8-((4-(trifluoromethoxy)benzyl)oxy)imidazo[1,2-a]pyrazine] | – | – | >32 µg/mL | > 32 µg/mL | > 100 µM | < 5 µM | < 5 µM | > 80 µM | > 79.4 µM | > 100 µM | >64 µg/mL | > 64 µg/mL | >32 µg/mL | > 32 µg/mL |
| CC(=O)OCCOc1nc(-c2ccccc2)cn2cc([N+](=O)[O-])nc12 [24c, 2-((2-Nitro-6-phenylimidazo[1,2-a]pyrazin-8-yl)oxy)ethyl Acetate] | – | – | >32 µg/mL | > 32 µg/mL | > 100 µM | < 5 µM | < 5 µM | > 80 µM | > 79.4 µM | > 100 µM | >64 µg/mL | > 64 µg/mL | >32 µg/mL | > 32 µg/mL |
| Cc1cn2cc([N+](=O)[O-])nc2c(=O)n1Cc1ccccc1OC(F)(F)F [25l, 6-Methyl-2-nitro-7-(2-(trifluoromethoxy)benzyl)imidazo[1,2-a]pyrazin-8(7H)-one] | – | – | >32 µg/mL | > 32 µg/mL | > 100 µM | < 5 µM | < 5 µM | > 40 µM | > 39.8 µM | > 100 µM | – | – | >32 µg/mL | > 32 µg/mL |
| Cc1cn2cc([N+](=O)[O-])nc2c(=O)[nH]1 [25a, 6-Methyl-2-nitroimidazo[1,2-a]pyrazin-8(7H)-one] | – | – | >32 µg/mL | > 32 µg/mL | > 100 µM | 183 ± 29.2 µM (≈ 35.5 µg/mL) | 182 ± 18.2 µM (≈ 35.3 µg/mL) | > 80 µM | > 79.4 µM | > 100 µM | >64 µg/mL | > 64 µg/mL | >32 µg/mL | > 32 µg/mL |
| NNC(=O)c1nc([N+](=O)[O-])cn1Cc1ccc(OC(F)(F)F)cc1 [28k] | > 100 µM | > 100 µM | – | – | – | – | – | – | – | – | – | – | – | – |
| CCOC(=O)c1nc([N+](=O)[O-])cn1Cc1ccc(OC(F)(F)F)cc1 [28i] | > 100 µM | > 100 µM | – | – | – | – | – | – | – | – | – | – | – | – |
| Cc1ccc(COc2nc(C)c(C)n3cc([N+](=O)[O-])nc23)cc1 [26e, 5,6-Dimethyl-8-((4-methylbenzyl)oxy)-2-nitroimidazo[1,2-a]pyrazine] | – | – | >32 µg/mL | > 32 µg/mL | > 100 µM | < 5 µM | < 5 µM | > 20 µM | > 20 µM | > 100 µM | – | – | >32 µg/mL | > 32 µg/mL |
| CN(C)C(=O)c1nc([N+](=O)[O-])cn1Cc1ccc(OC(F)(F)F)cc1 [28h] | > 100 µM | > 100 µM | – | – | – | – | – | – | – | – | – | – | – | – |
| Cc1ccc(Cn2c(C)c(C)n3cc([N+](=O)[O-])nc3c2=O)cc1 [26d, 5,6-Dimethyl-7-(4-methylbenzyl)-2-nitroimidazo[1,2-a]pyrazin-8(7H)-one] | – | – | >32 µg/mL | > 32 µg/mL | > 100 µM | 6.13 ± 0.0957 µM (≈ 1.91 µg/mL) | 8.95 ± 1.51 µM (≈ 2.8 µg/mL) | > 40 µM | > 39.8 µM | > 100 µM | – | – | >32 µg/mL | > 32 µg/mL |
| Cc1ncc([N+](=O)[O-])n1CCO [metronidazole 1, metronidazole, reference compound] | > 100 µM | > 100 µM | – | > 32 µg/mL | > 100 µM | – | – | – | – | > 100 µM | – | – | – | > 32 µg/mL |
| Cc1cn2cc([N+](=O)[O-])nc2c(=O)n1Cc1cccc(OC(F)(F)F)c1 [25j, 6-Methyl-2-nitro-7-(3-(trifluoromethoxy)benzyl)imidazo[1,2-a]pyrazin-8(7H)-one] | – | – | >32 µg/mL | > 32 µg/mL | > 100 µM | < 5 µM | < 5 µM | > 20 µM | > 20 µM | > 100 µM | – | – | >32 µg/mL | > 32 µg/mL |
| O=C(NCc1ccc(F)cc1)c1ncc([N+](=O)[O-])[nH]1 [16e] | > 100 µM | > 100 µM | – | – | – | – | – | – | – | – | – | – | – | – |
| CC(=O)OCCOc1nc(C)cn2cc([N+](=O)[O-])nc12 [25c, 2-((6-Methyl-2-nitroimidazo[1,2-a]pyrazin-8-yl)oxy)ethyl] | – | – | >32 µg/mL | > 32 µg/mL | > 100 µM | 185 ± 2.69 µM (≈ 51.8 µg/mL) | 169 ± 11 µM (≈ 47.4 µg/mL) | > 80 µM | > 79.4 µM | > 100 µM | >64 µg/mL | > 64 µg/mL | >32 µg/mL | > 32 µg/mL |
| Cc1ccc(Cn2c(C)cn3cc([N+](=O)[O-])nc3c2=O)cc1 [25h, 6-Methyl-7-(4-methylbenzyl)-2-nitroimidazo[1,2-a]pyrazin-8(7H)-one] | – | – | >32 µg/mL | > 32 µg/mL | > 100 µM | – | 7.5 ± 0.245 µM (≈ 2.24 µg/mL) | > 40 µM | > 39.8 µM | > 100 µM | – | – | >32 µg/mL | > 32 µg/mL |
